row,SMILES,melting point [°C]
1,O=C(c1ccccc1)c1[nH]c2cc(Cl)ccc2c1NC(=O)C(F)(F)F,165 to 168
2,CCOCc1nc2c(N)nc3cccnc3c2n1CC1(O)CCCC1,165 to 166
3,CCOC(=O)NNc1nc2ccc(-n3ccnc3)cc2n(OCc2ccccc2)c1=O,197 to 199
4,CC(C)(C)n1c(Cl)c(-c2ccc(Oc3ccccc3)cc2)c2c(N)ncnc21,137 to 138
5,C[C@H]1C=CC2=C[C@@H](O)C[C@H](OC(=O)CC(C)(C)C)[C@@H]2[C@H]1CC[C@@H]1C[C@@H](O)CC(=O)O1,155
6,CCCN(CC)Cc1nc2cc(OC)c(OC)cc2c(-c2ccc(OC)c(OC)c2)c1C(=O)OCC,105 to 106
7,CC(=O)OCC(=O)C1(OC(C)=O)C(C)CC2C3CC(C)C4=CC(=O)C=CC4(C)C3C(O)CC21C (stereo unspecified),124 to 126
8,OC(Cn1cncn1)(c1ccc(Cl)cc1)C1(n2cnc(Cl)n2)CC1 (stereo unspecified),156
9,COc1cc(Nc2c(C#N)cnc3cc(C#CCCO)c(OC)cc23)c(Cl)cc1Cl,230 to 232
10,COc1cc(C2CCN(C(=O)CN)CC2)ccc1Nc1ncc2ccc(-c3ccccc3N(C)S(C)(=O)=O)n2n1,106 to 119
11,Clc1cc(Cl)cc(-c2nc(-c3ccccn3)no2)c1,162 to 166
12,COc1ccc(C(=O)Nc2ccccc2)cc1NCc1cccc([N+](=O)[O-])c1,172 to 175
13,C=CCSCC(O)(Cn1cncn1)c1ccc(Cl)cc1Cl (stereo unspecified),92 to 94
14,NC(=O)c1c(Cl)cc(Cl)c(OCC(=O)O)c1Cl,261 to 262
15,CN1CCc2cc(S(=O)(=O)NC(=O)Nc3ccc(Cl)cc3)ccc21,145 to 147
16,CC(C)(C)c1nc2cc(N3CCCCC3)c(N)cc2s1,172 to 175
17,COc1c(OC2CCC(=O)CC2)ccnc1C,56 to 57
18,COc1cc(/C=C/C(=O)/C=C/C(=O)O)cc(OC)c1OC,152 to 154

row,SMILES,melting point [°C]
1,COC(=O)c1cccc(C(=O)CC(=O)c2ccccc2)c1,106 to 108
2,CS(=O)(=O)NCCS(=O)(=O)N1CCN(S(=O)(=O)c2ccc(-c3ccc(C(F)(F)F)cc3)s2)[C@@H](C(=O)NO)C1,105 to 108
3,CCC(=O)Oc1cc(OC)cc(OC)c1C(=O)C=Cc1ccc(OC)cc1,117 to 118
4,C=C(C)C[C@@H]1C(=O)N(c2ccc(C#N)c(Cl)c2)[C@@H](C)[C@H]1O,110 to 112
5,Nc1ncccc1C(=O)NCC1CCN(CC2COc3ccccc3O2)CC1 (stereo unspecified),104 to 106
6,CC(CCCCCc1nc(-c2ccc(Cl)cc2)c(-c2ccc(Cl)cc2)o1)c1nnn[nH]1 (racemic),144
7,CCCCCCCCCCCCCCCCc1cc(S)c(Sc2nnc(SCC(=O)O)s2)cc1O,71 to 76
8,O=Cc1cc([N+](=O)[O-])ccc1C1SCCCS1,99 to 101
9,CCCCc1nc(CO)c(C(=O)OC)n1Cc1ccc(-c2ccccc2C(=O)OC(C)(C)C)cc1,99
10,C[C@](O)(CNC(=O)c1cnc(OCC(F)(F)F)c(-c2ccc(Cl)cc2)n1)C1CC1,96 to 97
11,COCCC1(C(=O)N[C@@H](Cc2ccc(NC(=O)c3c(Cl)cccc3Cl)cc2)C(=O)OC)CCCC1,85 to 87
12,O=C1NCc2c1c1c(c3[nH]c4ccccc4c23)Cc2ccc(Br)cc2-1,> 340
13,CCOC(=O)c1ccc(O)c(C#N)c1,192 to 193
14,CC(C)(C)OC(=O)NC[C@H]1CN(c2ccc3c(c2)CC(C(C)(C)C)N3C=O)C(=O)O1 (stereo partly specified),153 to 161
15,COc1cc(C(=O)CC(=O)c2ccccc2O)cc([N+](=O)[O-])c1OC,188 to 189
16,CC(Oc1ccc(CNC(=O)c2cccnc2Oc2ccc3c(c2)OCO3)c(F)c1)C(=O)O (stereo unspecified),136 to 138
17,CCC(C(=O)O)N(C(=O)c1cn(-c2ccc(F)cc2F)nc1C)c1ccc(OCC(C)(C)C)c(C#N)c1 (stereo unspecified),110
18,N#CCCNC(=O)c1cccc(-c2ccc3c(c2)N(c2ccc(Cl)cc2Cl)CCCC3)c1,139 to 142
